A short description of data set [1]: In vitro release of DZP samples (USP II paddle method). To be noted: deionized water, 37 °C, 50 rpm. It counts as physicochemical. Here is the method: (§1) Dissolution studies of samples were carried out according to a USP II paddle method at 37 °C with a stirrer rotation speed of 50 rpm in a dissolution apparatus (ZRD6-B, Shanghai Huanghai Medicament Test Instrument Factory, Shanghai, China). […] At predetermined time intervals, 5 ml samples were taken out and replaced by fresh medium immediately. Then, samples were passed through a 0.22 μm membrane filter and were transferred to UV/Vis analysis at the wavelength of 240 nm.

Data set [2] concerns mouse ear swelling caused by xylene. Put plainly: Mouse ear swelling test (MEST). In kind it is in vivo, Kunming mice. To be noted: intragastric, 0.6 mg NMS, 50 min. Here is the method: The mouse ear swelling test was developed to further evaluate the swelling inhibition potential of NMS/CMS. In detail, 16 male Kunming mice weighing 18–22 g were randomly divided into four groups (n = 4): NS group (negative control group), NMS group (positive control group), NMS/CMS group ([…]) and NMS/MCM41 group ([…]). Samples containing 0.6 mg NMS were suspended in normal saline and imposed to mice in all groups by intragastric administration. Mice in NS group were exposed to normal saline only. At 30 min after administration, 0.1 ml xylene was applied on each side of the left ear of mice, and the right ear regarded as a reference was left untreated. After 50 min, mice were executed, both ears were removed, and tissues with diameter of 0.6 cm were cut off by hole punch. The weight of the tissues cut from left and right ears was measured by electronic scale. The repression rate and the degree of ear swelling were, respectively, expressed as: (3) Repression rate (%)=(wL-wR)negative control-(wL-wR)test/(wL-wR)negative control-(wL-wR)positive control×100 (4) Swelling rate (%)=wL-wR/wR×100 where w L is the weight of tissue cut from the left ear and w R is the weight of tissue cut from the right ear of the same mice.

Data set [3] in a line: In vitro release of NMS samples (USP II paddle method, PBS pH 7.8). In kind it is physicochemical. To be noted: PBS pH 7.8, 37 °C. Here is the method:
as §1
Samples containing 5 mg NMS were put into 250 ml phosphate buffer solutions (PBS, pH 7.8) at 37 °C.

In the case of `CN1C(=O)CN=C(c2ccccc2)c2cc(Cl)ccc21` [DZP, Diazepam], in data set [1], the “cumulative release percentage within 24 h” value was determined as 66.75%.

Turning to `CS(=O)(=O)Nc1ccc([N+](=O)[O-])cc1Oc1ccccc1` [NMS, Nimesulide], the ear swelling rate in data set [2] worked out at 32.4%. In addition, the “accumulative release percentage within 24 h” value in data set [3] is 93.1%.
